# Molecular target: PRMT5/MEP50 (Homo sapiens (Human), UniProt O14744)
# Assay: PRMT5 Biochemical Assay (PRMT5/MEP50 enzyme assay on peptide substrate, 3H-SAM Flashplate)
# Conditions: PRMT5 biochemical assay; read-out: Biochemical IC50
# Text: S-adenosylmethionine (SAM), S-adenosylhomocysteine (SAH), bicine, KCl, Tween20, dimethylsulfoxide (DMSO), bovine skin gelatin (BSG), and Tris(2-carboxyethyl)phosphine hydrochloride solution (TCEP) were purchased from Sigma-Aldrich at the highest level of purity possible. ^3H-SAM was purchase from American Radiolabeled Chemicals with a specific activity of 80 Ci/mmol. 384-well streptavidin Flashplates were purchased from PerkinElmer.
# Peptide representative of human histone H4 residues 1-15 was synthesized with a C-terminal linker-affinity tag motif and a C-terminal amide cap by 21st Century Biochemicals. […] The sequence was Ac-[…][K-Biot]-amide (SEQ ID NO.:3).
# Full-length human MEP50 (NM_024102) clone was amplified from a human testis cDNA library incorporating a 5′ sequence encoding a 6-histidine tag (MHHHHHH)(SEQ ID NO.:5) fused directly to Arg 2 of MEP50. The amplified genes were sublconed into pENTR/D/TEV (Life Technologies) and subsequently transferred by Gateway™ attL×attR recombination to pDEST8 baculvirus expression vector (Life Technologies).
# Recombinant baculovirus and Baculovirus-Infected Insect Cells (BIIC) were generated according to Bac-to-Bac kit instructions (Life Technologies) and Wasilko, 2006, respectively. Protein over-expression was accomplished by infecting exponentially growing Spodoptera frugiperda (SF9) cell culture at 1.2×10^6 cell/ml with a 5000 fold dilution of BIIC stock. Infections were carried out at 27° C. for 72 hours, harvested by centrifugation, and stored at −80° C. for purification.
# Flag-PRMT5/6His-MeP50 was eluted with 300 mM Imidazole in the same buffer. […] Reference: Wasilko, D. J. and S. E. Lee: “TIPS: titerless infected-cells preservation and scale-up” Bioprocess J., 5 (2006), pp. 29-32.
# General Procedure for PRMT5/MEP50 Enzyme Assays on Peptide Substrates.
# The assays were all performed in a buffer consisting of 20 mM Bicine (pH=7.6), 1 mM TCEP, 0.005% BSG, and 0.002% Tween20, prepared on the day of use. Compounds in 100% DMSO (1 ul) were spotted into a polypropylene 384-well V-bottom plates (Greiner) using a Platemate Plus outfitted with a 384-channel head (Thermo Scientific). DMSO (1 ul) was added to Columns 11, 12, 23, 24, rows A-H for the maximum signal control and 1 ul of SAH, a known product and inhibitor of PRMT5/MEP50, was added to columns 11, 12, 23, 24, rows I-P for the minimum signal control. A cocktail (40 ul) containing the PRMT5/MEP50 enzyme and the peptide was added by Multidrop Combi (Thermo-Fisher). The compounds were allowed to incubate with PRMT5/MEP50 for 30 min at 25 degrees Celsius, then a cocktail (10 ul) containing ^3H-SAM was added to initiate the reaction (final volume=51 ul).
# Chain of PRMT5/MEP50 (O14744 other isoform, or with tags, fused parts or gaps): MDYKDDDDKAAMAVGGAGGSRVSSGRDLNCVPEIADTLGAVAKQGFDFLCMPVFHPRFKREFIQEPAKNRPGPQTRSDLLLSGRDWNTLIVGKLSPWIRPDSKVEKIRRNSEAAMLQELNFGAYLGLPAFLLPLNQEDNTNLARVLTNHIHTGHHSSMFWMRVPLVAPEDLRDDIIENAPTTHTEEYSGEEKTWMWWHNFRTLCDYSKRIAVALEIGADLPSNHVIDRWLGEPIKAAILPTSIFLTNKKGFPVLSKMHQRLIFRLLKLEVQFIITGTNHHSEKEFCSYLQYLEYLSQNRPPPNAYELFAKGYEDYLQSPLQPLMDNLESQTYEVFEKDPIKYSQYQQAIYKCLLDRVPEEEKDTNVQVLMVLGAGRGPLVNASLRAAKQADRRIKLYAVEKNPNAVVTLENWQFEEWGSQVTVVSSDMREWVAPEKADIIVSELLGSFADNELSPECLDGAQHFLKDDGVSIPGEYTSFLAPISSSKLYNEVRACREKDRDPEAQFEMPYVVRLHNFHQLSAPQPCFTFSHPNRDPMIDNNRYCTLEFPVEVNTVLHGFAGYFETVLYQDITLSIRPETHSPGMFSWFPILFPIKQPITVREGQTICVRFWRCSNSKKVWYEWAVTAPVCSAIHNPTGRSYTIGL
# Chain of PRMT5/MEP50 (Q9BQA1 other isoform, or with tags, fused parts or gaps partner): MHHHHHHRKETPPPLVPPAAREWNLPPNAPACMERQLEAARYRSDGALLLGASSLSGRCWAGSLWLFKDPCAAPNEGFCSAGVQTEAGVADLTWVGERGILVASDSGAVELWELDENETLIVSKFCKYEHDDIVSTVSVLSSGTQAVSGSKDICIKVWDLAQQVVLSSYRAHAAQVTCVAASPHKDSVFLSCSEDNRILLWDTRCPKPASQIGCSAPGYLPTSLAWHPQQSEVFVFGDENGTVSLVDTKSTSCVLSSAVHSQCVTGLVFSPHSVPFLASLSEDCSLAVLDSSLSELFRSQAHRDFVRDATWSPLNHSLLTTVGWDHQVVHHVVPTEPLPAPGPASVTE
row,SMILES,IC50
1,CN(C)S(=O)(=O)c1ccccc1OCC(=O)NCC(O)CN1CCc2ccccc2C1 (centres unmarked) [Compound 109],< 0.1 µM
2,O=C(COc1ccccc1S(=O)(=O)N1CCCC1)NCC(O)CN1CCc2ccccc2C1 (centres unmarked) [Compound 110],< 0.1 µM
3,O=C(COc1ccccc1S(=O)(=O)N1CCC(O)C1)NCC(O)CN1CCc2ccccc2C1 (centres unmarked) [Compound 111],< 0.1 µM
4,O=C(COc1cccc2c1CNCC2)NCC(O)CN1CCc2ccccc2C1 (centres unmarked) [Compound 119],< 0.1 µM
5,CNS(=O)(=O)c1ccccc1OCC(=O)NCC(O)CN1CCc2ccccc2C1 (centres unmarked) [Compound 123],< 0.1 µM
6,CC(Oc1ccccc1S(N)(=O)=O)C(=O)NCC(O)CN1CCc2ccccc2C1 (centres unmarked) [Compound 126],> 50 µM
7,CC(=O)Nc1cccnc1OCC(=O)NCC(O)CN1CCc2ccccc2C1 (centres unmarked) [Compound 128],> 50 µM
8,CN1CCCC(c2ccccc2OCC(=O)NCC(O)CN2CCc3ccccc3C2)C1 (centres unmarked) [Compound 130],< 0.1 µM
9,CN(C)c1cccnc1OCC(=O)NCC(O)CN1CCc2ccccc2C1 (centres unmarked) [Compound 133],> 10 µM
10,CS(=O)(=O)Nc1ncccc1OCC(=O)NCC(O)CN1CCc2ccccc2C1 (centres unmarked) [Compound 139],> 10 µM
11,O=C(COc1cccc2cccnc12)NCC(O)CN1Cc2ccccc2C(F)(F)C1 (centres unmarked) [Compound 144],> 10 µM
12,Cc1cn(C)c2cccc(OCC(=O)NCC(O)CN3CCc4ccccc4C3)c12 (centres unmarked) [Compound 146],< 0.1 µM
13,CC(=O)Nc1ncccc1OCC(=O)NCC(O)CN1CCc2ccccc2C1 (centres unmarked) [Compound 147],> 10 µM
14,CC(=O)Nc1cncc(OCC(=O)NCC(O)CN2CCc3ccccc3C2)c1 (centres unmarked) [Compound 148],> 10 µM
15,O=C(COc1ccccc1S(=O)(=O)N1CCOCC1)NCC(O)CN1CCc2ccccc2C1 (centres unmarked) [Compound 149],< 0.1 µM
16,Cn1cnc(-c2ccccc2OCC(=O)NCC(O)CN2CCc3ccccc3C2)c1 (centres unmarked) [Compound 153],< 0.1 µM
17,O=C(COc1cccc2cnncc12)NCC(O)CN1CCc2ccccc2C1 (centres unmarked) [Compound 154],1 to 10 µM
18,CN(c1ccccc1OCC(=O)NCC(O)CN1CCc2ccccc2C1)S(C)(=O)=O (centres unmarked) [Compound 155],< 0.1 µM
19,Cn1cncc1-c1ccccc1OCC(=O)NCC(O)CN1CCc2ccccc2C1 (centres unmarked) [Compound 156],1 to 10 µM
20,CC(Oc1ccccc1NS(C)(=O)=O)C(=O)NCC(O)CN1CCc2ccccc2C1 (centres unmarked) [Compound 157],1 to 10 µM

row,SMILES,IC50
1,Cc1nn(C)c2cccc(OCC(=O)NCC(O)CN3CCc4ccccc4C3)c12 (centres unmarked) [Compound 158],< 0.1 µM
2,Cn1ncc2ccc(OCC(=O)NC[C@H](O)CN3CCc4ccccc4C3)cc21 [Compound 159],< 0.1 µM
3,Cn1ncc2ccc(OCC(=O)NC[C@@H](O)CN3CCc4ccccc4C3)cc21 [Compound 160],0.101 to 1 µM
4,O=C(COc1cncc(C(=O)N2CCOCC2)c1)NCC(O)CN1CCc2ccccc2C1 (centres unmarked) [Compound 161],0.101 to 1 µM
5,CC(=O)Nc1ccncc1OCC(=O)NCC(O)CN1CCc2ccccc2C1 (centres unmarked) [Compound 162],1 to 10 µM
6,Cc1cn(C)c2cccc(OCC(=O)NC[C@H](O)CN3CCc4ccccc4C3)c12 [Compound 163],< 0.1 µM
7,Cc1cn(C)c2cccc(OCC(=O)NC[C@@H](O)CN3CCc4ccccc4C3)c12 [Compound 164],< 0.1 µM
8,O=C(NCC(O)CN1CCc2ccccc2C1)C(O)c1ccccc1 (centres unmarked) [Compound 165],0.101 to 1 µM
9,O=C(COC1CCCOC1)NCC(O)CN1CCc2ccccc2C1 (centres unmarked) [Compound 166],1 to 10 µM
10,O=C(COCCN1CCOCC1)NCC(O)CN1CCc2ccccc2C1 (centres unmarked) [Compound 167],1 to 10 µM
11,Nc1ncnc2c(OCC(=O)NCC(O)CN3CCc4ccccc4C3)cccc12 (centres unmarked) [Compound 168],< 0.1 µM
12,CN(C)c1cccc(OCC(=O)NCC(O)CN2CCc3ccccc3C2)c1S(N)(=O)=O (centres unmarked) [Compound 169],< 0.1 µM
13,CC(NC(=O)COc1ccccc1S(N)(=O)=O)C(O)CN1CCc2ccccc2C1 (centres unmarked) [Compound 170],< 0.1 µM
14,O=C(COC1CCOC1)NCC(O)CN1CCc2ccccc2C1 (centres unmarked) [Compound 171],1 to 10 µM
15,O=C(COc1cncc(CN2CCOCC2)c1)NCC(O)CN1CCc2ccccc2C1 (centres unmarked) [Compound 172],0.101 to 1 µM
16,CC(O)(C(=O)NCC(O)CN1CCc2ccccc2C1)c1ccccc1 (centres unmarked) [Compound 173],1 to 10 µM
17,O=C(Cc1ccc2c(c1)OCO2)NC[C@H](O)CN1CCc2ccccc2C1 [Compound 174],0.101 to 1 µM
18,"O=C(CCc1nc2ccccc2[nH]1)NC[C@H](O)CN1CCc2ccccc2C1 [Compound 175, (S)-3-(1H-benzo[d]imidazol-2-yl)-N-(3-(3,4-dihydroisoquinolin-2(1H)-yl)-2-hydroxypropyl)propanamide]",< 0.1 µM
19,CN1CCN(CCOCC(=O)NCC(O)CN2CCc3ccccc3C2)CC1 (centres unmarked) [Compound 176],1 to 10 µM
20,O=C(NC[C@H](O)CN1CCc2ccccc2C1)C1CNc2ccccc21 (some centres unmarked) [Compound 177],0.101 to 1 µM

row,SMILES,IC50
1,O=C(CC1CCc2ccccc21)NC[C@H](O)CN1CCc2ccccc2C1 (some centres unmarked) [Compound 178],0.101 to 1 µM
2,O=C(CC1Cc2ccccc2C1)NC[C@H](O)CN1CCc2ccccc2C1 [Compound 179],0.101 to 1 µM
3,O=C(NC[C@H](O)CN1CCc2ccccc2C1)C1CCCc2ccccc21 (some centres unmarked) [Compound 180],1 to 10 µM
4,O=C(COc1cccc2cncnc12)NCC(O)CN1CCc2ccccc2C1 (centres unmarked) [Compound 181],< 0.1 µM
5,O=C(Cc1c[nH]c2ccccc12)NC[C@H](O)CN1CCc2ccccc2C1 [Compound 182],0.101 to 1 µM
6,O=C(NC[C@H](O)CN1CCc2ccccc2C1)C1COc2ccccc2O1 (some centres unmarked) [Compound 183],0.101 to 1 µM
7,O=C(NC[C@H](O)CN1CCc2ccccc2C1)[C@@H]1C[C@@H]2CCCC[C@@H]2N1 [Compound 184],1 to 10 µM
8,O=C(NC[C@H](O)CN1CCc2ccccc2C1)[C@H]1Cc2ccccc2CN1 [Compound 185],0.101 to 1 µM
9,O=C(COc1cccc(-c2ncc[nH]2)c1)NC[C@@H](O)CN1CCc2ccccc2C1 [Compound 186],1 to 10 µM
10,Cn1ccnc1-c1cccc(OCC(=O)NC[C@@H](O)CN2CCc3ccccc3C2)c1 [Compound 187],1 to 10 µM
11,O=C(COc1cccc(C(=O)NCCN2CCOCC2)c1)NC[C@@H](O)CN1CCc2ccccc2C1 [Compound 188],1 to 10 µM
12,O=C(COc1cccc(C(=O)NCCc2c[nH]cn2)c1)NC[C@@H](O)CN1CCc2ccccc2C1 [Compound 189],0.101 to 1 µM
13,CN1CCN(c2cccc(OCC(=O)NC[C@@H](O)CN3CCc4ccccc4C3)c2)CC1 [Compound 190],< 0.1 µM
14,CN(C)CCN(C)S(=O)(=O)c1ccccc1OCC(=O)NC[C@@H](O)CN1CCc2ccccc2C1 [Compound 191],< 0.1 µM
15,"O=C(CCc1nc2ccccc2[nH]1)NC[C@@H](O)CN1CCc2ccccc2C1 [Compound 192, (R)-3-(1H-benzo[d]imidazol-2-yl)-N-(3-(3,4-dihydroisoquinolin-2(1H)-yl)-2-hydroxypropyl)propanamide]",0.101 to 1 µM
16,O=C(CCc1nc2ccccc2s1)NC[C@@H](O)CN1CCc2ccccc2C1 [Compound 193],1 to 10 µM
17,O=C(COc1nc2ccccc2[nH]1)NC[C@@H](O)CN1CCc2ccccc2C1 [Compound 212],1 to 10 µM
18,O=C(COc1cccc(C(=O)NCCn2ccnc2)c1)NC[C@@H](O)CN1CCc2ccccc2C1 [Compound 230],1 to 10 µM
19,CN1CCN(S(=O)(=O)c2ccccc2OCC(=O)NC[C@@H](O)CN2CCc3ccccc3C2)CC1CO (some centres unmarked) [Compound 233],1 to 10 µM

# Reference: patent US9745291B2, “PRMT5 inhibitors containing a dihydro- or tetrahydroisoquinoline and uses thereof” (Epizyme, Inc., priority 2012, dated 2017)
